{
  "source": "BindingDB's records for doi:10.1021/jm9606608",
  "about": "(Boehringer Ingelheim (Canada), 1997)",
  "data": [
    {"target": "T1, Dimer of Gag-Pol polyprotein [514-612] (Human immunodeficiency virus 2, UniProt P04584)", "T1 construct": "514-612", "T1 sequence (P04584 whole entry)": "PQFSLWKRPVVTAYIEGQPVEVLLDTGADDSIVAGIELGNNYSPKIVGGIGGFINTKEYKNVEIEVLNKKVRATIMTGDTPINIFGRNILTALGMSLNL", "experiment": "Protease Inhibition Assay", "conditions": "pH 5.5; 37 °C", "protocol": "(§1) Sensitivity of HIV-1 protease activity to protease inhibitors was determined by a peptide substrate cleavage assay. Cleavage products and substrate were separated by reversed-phase HPLC on a Perkin-Elmer 3 X 3CR C8 column.", "units": {"IC50": "nM"}, "values": [
      {"smiles": "CCC(CC)NC(=O)C[C@@H](C(=O)NC[C@@H](O)[C@H](Cc1ccccc1)NC(=O)[C@H](CC(N)=O)NC(=O)c1cnc2ccccc2n1)C(C)(C)C", "note": "[(2S)-N-[(2S,3R)-4-[(2R)-2-tert-butyl-N-(pentan-3-yl)butanediamido]-3-hydroxy-1-phenylbutan-2-yl]-2-(quinoxalin-2-ylformamido)butanediamide]", "IC50": 6.3},
      {"smiles": "CCC(CC)NC(=O)C[C@@H](C(=O)NC[C@@H](O)[C@H](Cc1ccccc1)NC(=O)[C@@H](NC(=O)c1ccc2ccccc2n1)C(C)C)C(C)(C)C", "note": "[(2R)-2-tert-butyl-N-[(2R,3S)-2-hydroxy-3-[(2S)-3-methyl-2-(quinolin-2-ylformamido)butanamido]-4-phenylbutyl]-N'-(pentan-3-yl)butanediamide]", "IC50": 42},
      {"smiles": "CCC(CC)NC(=O)C[C@@H](C(=O)NC[C@@H](O)[C@H](Cc1ccccc1)NC(=O)[C@@H](NC(=O)c1cnc2ccccc2n1)C(C)C)C(C)(C)C", "note": "[(2R)-2-tert-butyl-N-[(2R,3S)-2-hydroxy-3-[(2S)-3-methyl-2-(quinoxalin-2-ylformamido)butanamido]-4-phenylbutyl]-N'-(pentan-3-yl)butanediamide]", "IC50": 38},
      {"smiles": "CCC(CC)NC(=O)C[C@@H](C(=O)NC[C@@H](O)[C@H](Cc1ccccc1)NC(=O)[C@H](CC(N)=O)NC(=O)c1ccc2ccccc2n1)C(C)(C)C", "note": "[(2S)-N-[(2S,3R)-4-[(2R)-2-tert-butyl-N-(pentan-3-yl)butanediamido]-3-hydroxy-1-phenylbutan-2-yl]-2-(quinolin-2-ylformamido)butanediamide]", "IC50": 6.7},
      {"smiles": "CCC(CC)NC(=O)C[C@@H](C(=O)NC[C@@H](O)[C@H](Cc1ccccc1)NC(=O)[C@@H](NC(=O)c1cnc2ccccc2n1)C(C)O)C(C)(C)C", "note": "(stereo partly drawn) [(2R)-2-tert-butyl-N-[(2R,3S)-2-hydroxy-3-[(2S,3R)-3-hydroxy-2-(quinoxalin-2-ylformamido)butanamido]-4-phenylbutyl]-N'-(pentan-3-yl)butanediamide]", "IC50": 135}
    ]},
    {"target": "T2, Dimer of Gag-Pol polyprotein [489-587] (Human immunodeficiency virus 1, UniProt P12497)", "T2 construct": "489-587", "experiment": "Protease Inhibition Assay", "conditions": "pH 5.5; 37 °C", "protocol": "as §1", "units": {"IC50": "nM"}, "values": [
      {"smiles": "CCC(CC)NC(=O)C[C@@H](C(=O)NC[C@@H](O)[C@H](Cc1ccccc1)NC(=O)[C@@H](NC(=O)OCc1ccccc1)C(C)O)C(C)(C)C", "note": "(stereo partly drawn) [benzyl N-[(1S,2S)-1-{[(2S,3R)-4-[(2R)-2-tert-butyl-N-(pentan-3-yl)butanediamido]-3-hydroxy-1-phenylbutan-2-yl]carbamoyl}-2-hydroxypropyl]carbamate]", "IC50": 8.2},
      {"smiles": "CCC(CC)NC(=O)C[C@@H](C(=O)NC[C@@H](O)[C@H](Cc1ccccc1)NC(=O)[C@@H](NC(=O)c1ccc2ccccc2n1)C(C)O)C(C)(C)C", "note": "(stereo partly drawn) [(2R)-2-tert-butyl-N-[(2R,3S)-2-hydroxy-3-[(2S,3R)-3-hydroxy-2-(quinolin-2-ylformamido)butanamido]-4-phenylbutyl]-N'-(pentan-3-yl)butanediamide]", "IC50": 3.6},
      {"smiles": "CCC(CC)NC(=O)C[C@@H](C(=O)NC[C@@H](O)[C@H](Cc1ccccc1)NC(=O)[C@@H](NC(=O)c1cnc2ccccc2n1)C(C)O)C(C)(C)C", "note": "(stereo partly drawn) [(2R)-2-tert-butyl-N-[(2R,3S)-2-hydroxy-3-[(2S,3R)-3-hydroxy-2-(quinoxalin-2-ylformamido)butanamido]-4-phenylbutyl]-N'-(pentan-3-yl)butanediamide]", "IC50": 3},
      {"smiles": "CC(C)[C@H](NC(=O)OCc1ccccc1)C(=O)N[C@@H](Cc1ccccc1)[C@H](O)CNC(=O)C1CCCCC1C(=O)NC(C)(C)C", "note": "(stereo partly drawn) [benzyl N-[(1S)-1-{[(2S,3R)-4-{[2-(tert-butylcarbamoyl)cyclohexyl]formamido}-3-hydroxy-1-phenylbutan-2-yl]carbamoyl}-2-methylpropyl]carbamate]", "IC50": 140}
    ]}
  ]
}
